Measurements: the supplement of paper PMC13207355

Key:
Settings in all cases: exposure time: 72 h
[1] = test system: E13 (patient-derived glioblastoma stem cells of classical subtype); assay: phenotypic distance (Euclidean, principal components) from DMSO controls (arbitrary units); higher = stronger morphological change
[2] = test system: E28 (patient-derived glioblastoma stem cells of classical subtype); assay: as above
[3] = test system: FT3469 (normal neural stem cell line); assay: as above
[4] = test system: E57 (patient-derived glioblastoma stem cells of mesenchymal subtype); assay: as above
[5] = test system: E34 (patient-derived glioblastoma stem cells of proneural subtype); assay: as above
[6] = test system: E31 (patient-derived glioblastoma stem cells of proneural subtype); assay: as above
[7] = test system: E21 (patient-derived glioblastoma stem cells of mesenchymal subtype); assay: as above
[8] = test system: E13; assay: surviving fraction (nuclei count normalised to DMSO); higher = more cells surviving (less toxic)
[9] = test system: E28; assay: as above
[10] = test system: FT3469; assay: as above
[11] = test system: E57; assay: as above
[12] = test system: E34; assay: as above
[13] = test system: E31; assay: as above
[14] = test system: E21; assay: as above
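Throughout, for phenotypic distance (Euclidean, principal components) from DMSO controls: cell Painting imaging in 384-well plates, CellProfiler features reduced to at least 20 principal components, Euclidean distance versus same-plate DMSO vehicle wells (0.1% v/v), median over six images per well.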
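Throughout, for surviving fraction (nuclei count normalised to DMSO): nuclei counted by high-content imaging of Hoechst-stained cells in laminin-coated 384-well plates, relative to 0.1% DMSO vehicle wells, with staurosporine as cell-death control.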

NC(=O)c1cccc2cn(-c3ccc([C@@H]4CCCNC4)cc3)nc12 [Niraparib]
Settings | phenotypic distance | surviving fraction
[1], 4.1 nM | 6.4 | –
[1], 12.3 nM | 0.843 | –
[1], 37 nM | 0.647 | –
[1], 111.1 nM | 1.65 | –
[1], 333.3 nM | 1.62 | –
[1], 1000 nM | 0.782 | –
[1], 3000 nM | 1.33 | –
[2], 4.1 nM | 0.932 | –
[2], 12.3 nM | 0.689 | –
[2], 37 nM | 1.02 | –
[2], 111.1 nM | 0.861 | –
[2], 333.3 nM | 0.791 | –
[2], 1000 nM | 1.23 | –
[2], 3000 nM | 2.78 | –
[3], 4.1 nM | 1.72 | –
[3], 12.3 nM | 0.905 | –
[3], 37 nM | 1.21 | –
[3], 111.1 nM | 0.978 | –
[3], 333.3 nM | 0.746 | –
[3], 1000 nM | 1.12 | –
[3], 3000 nM | 2.12 | –
[4], 4.1 nM | 0.553 | –
[4], 12.3 nM | 0.936 | –
[4], 37 nM | 0.684 | –
[4], 111.1 nM | 0.604 | –
[4], 333.3 nM | 0.582 | –
[4], 1000 nM | 0.667 | –
[4], 3000 nM | 1.51 | –
[5], 4.1 nM | 3.06 | –
[5], 12.3 nM | 0.78 | –
[5], 37 nM | 0.587 | –
[5], 111.1 nM | 0.691 | –
[5], 333.3 nM | 0.654 | –
[5], 1000 nM | 0.893 | –
[5], 3000 nM | 1.77 | –
[6], 4.1 nM | 0.907 | –
[6], 12.3 nM | 1.29 | –
[6], 37 nM | 1.19 | –
[6], 111.1 nM | 0.995 | –
[6], 333.3 nM | 0.875 | –
[6], 1000 nM | 0.834 | –
[6], 3000 nM | 2.29 | –
[7], 4.1 nM | 1 | –
[7], 12.3 nM | 1.03 | –
[7], 37 nM | 0.998 | –
[7], 111.1 nM | 0.66 | –
[7], 333.3 nM | 0.751 | –
[7], 1000 nM | 3.25 | –
[7], 3000 nM | 0.988 | –
[8], 4.1 nM | – | 0.923
[8], 12.3 nM | – | 0.914
[8], 37 nM | – | 0.942
[8], 111.1 nM | – | 0.857
[8], 333.3 nM | – | 0.967
[8], 1000 nM | – | 0.966
[8], 3000 nM | – | 0.811
[9], 4.1 nM | – | 0.905
[9], 12.3 nM | – | 0.975
[9], 37 nM | – | 0.875
[9], 111.1 nM | – | 0.868
[9], 333.3 nM | – | 0.922
[9], 1000 nM | – | 0.84
[9], 3000 nM | – | 0.603
[10], 4.1 nM | – | 0.84
[10], 12.3 nM | – | 0.901
[10], 37 nM | – | 0.853
[10], 111.1 nM | – | 0.918
[10], 333.3 nM | – | 0.931
[10], 1000 nM | – | 0.916
[10], 3000 nM | – | 0.743
[11], 4.1 nM | – | 0.996
[11], 12.3 nM | – | 0.917
[11], 37 nM | – | 0.93
[11], 111.1 nM | – | 0.833
[11], 333.3 nM | – | 0.951
[11], 1000 nM | – | 0.921
[11], 3000 nM | – | 0.826
[12], 4.1 nM | – | 0.963
[12], 12.3 nM | – | 0.904
[12], 37 nM | – | 0.902
[12], 111.1 nM | – | 0.971
[12], 333.3 nM | – | 0.861
[12], 1000 nM | – | 0.924
[12], 3000 nM | – | 0.737
[13], 4.1 nM | – | 1.04
[13], 12.3 nM | – | 0.782
[13], 37 nM | – | 1
[13], 111.1 nM | – | 0.896
[13], 333.3 nM | – | 0.939
[13], 1000 nM | – | 0.886
[13], 3000 nM | – | 0.64
[14], 4.1 nM | – | 0.89
[14], 12.3 nM | – | 0.869
[14], 37 nM | – | 0.882
[14], 111.1 nM | – | 0.923
[14], 333.3 nM | – | 0.916
[14], 1000 nM | – | 0.927
[14], 3000 nM | – | 0.942

C#C[C@]1(O)CC[C@H]2[C@@H]3CCc4cc(OC5CCCC5)ccc4[C@H]3CC[C@@]21C [Quinestrol]
Settings | phenotypic distance | surviving fraction
[1], 4.1 nM | 0.478 | –
[1], 12.3 nM | 0.526 | –
[1], 37 nM | 0.837 | –
[1], 111.1 nM | 0.697 | –
[1], 333.3 nM | 0.689 | –
[1], 1000 nM | 1.18 | –
[1], 3000 nM | 7.05 | –
[2], 4.1 nM | 0.438 | –
[2], 12.3 nM | 2.42 | –
[2], 37 nM | 0.788 | –
[2], 111.1 nM | 0.466 | –
[2], 333.3 nM | 0.753 | –
[2], 1000 nM | 0.514 | –
[2], 3000 nM | 0.675 | –
[3], 4.1 nM | 0.479 | –
[3], 12.3 nM | 0.739 | –
[3], 37 nM | 0.643 | –
[3], 111.1 nM | 1.01 | –
[3], 333.3 nM | 0.84 | –
[3], 1000 nM | 0.699 | –
[3], 3000 nM | 1.58 | –
[4], 4.1 nM | 1.71 | –
[4], 12.3 nM | 1.01 | –
[4], 37 nM | 0.583 | –
[4], 111.1 nM | 0.81 | –
[4], 333.3 nM | 0.452 | –
[4], 1000 nM | 0.7 | –
[4], 3000 nM | 3.72 | –
[5], 4.1 nM | 0.544 | –
[5], 12.3 nM | 0.554 | –
[5], 37 nM | 0.597 | –
[5], 111.1 nM | 0.985 | –
[5], 333.3 nM | 1.09 | –
[5], 1000 nM | 0.707 | –
[5], 3000 nM | 1.82 | –
[6], 4.1 nM | 0.447 | –
[6], 12.3 nM | 0.67 | –
[6], 37 nM | 1.03 | –
[6], 111.1 nM | 0.71 | –
[6], 333.3 nM | 0.698 | –
[6], 1000 nM | 0.864 | –
[6], 3000 nM | 3.81 | –
[7], 4.1 nM | 0.608 | –
[7], 12.3 nM | 0.48 | –
[7], 37 nM | 0.746 | –
[7], 111.1 nM | 0.53 | –
[7], 333.3 nM | 0.819 | –
[7], 1000 nM | 2.32 | –
[7], 3000 nM | 6.37 | –
[8], 4.1 nM | – | 1.06
[8], 12.3 nM | – | 1.04
[8], 37 nM | – | 1.11
[8], 111.1 nM | – | 1.07
[8], 333.3 nM | – | 1.02
[8], 1000 nM | – | 0.946
[8], 3000 nM | – | 0.347
[9], 4.1 nM | – | 1.13
[9], 12.3 nM | – | 1.04
[9], 37 nM | – | 1.08
[9], 111.1 nM | – | 1.1
[9], 333.3 nM | – | 1.04
[9], 1000 nM | – | 1.19
[9], 3000 nM | – | 1.01
[10], 4.1 nM | – | 0.963
[10], 12.3 nM | – | 1.03
[10], 37 nM | – | 1.11
[10], 111.1 nM | – | 1.09
[10], 333.3 nM | – | 1.2
[10], 1000 nM | – | 0.888
[10], 3000 nM | – | 0.938
[11], 4.1 nM | – | 1.05
[11], 12.3 nM | – | 1.05
[11], 37 nM | – | 1.01
[11], 111.1 nM | – | 1.06
[11], 333.3 nM | – | 1.01
[11], 1000 nM | – | 1.03
[11], 3000 nM | – | 0.693
[12], 4.1 nM | – | 1.01
[12], 12.3 nM | – | 1.07
[12], 37 nM | – | 1.01
[12], 111.1 nM | – | 1.07
[12], 333.3 nM | – | 1.15
[12], 1000 nM | – | 0.967
[12], 3000 nM | – | 0.918
[13], 4.1 nM | – | 1.02
[13], 12.3 nM | – | 0.942
[13], 37 nM | – | 1.09
[13], 111.1 nM | – | 1.07
[13], 333.3 nM | – | 0.981
[13], 1000 nM | – | 1.01
[13], 3000 nM | – | 0.848
[14], 4.1 nM | – | 1.01
[14], 12.3 nM | – | 0.938
[14], 37 nM | – | 1.05
[14], 111.1 nM | – | 0.982
[14], 333.3 nM | – | 1.02
[14], 1000 nM | – | 0.873
[14], 3000 nM | – | 0.617
